Reference: US20220378814A1, “COMPOSITION OF PHYTONUTRIENTS FOR OBESITY PREVENTION” (ROSEMAN UNIVERSITY OF HEALTH SCIENCES, priority 2021, published 2022)
Several values for one entry are separate records, joined by “and”; a condition that tells them apart may be missing. Equal values may be shown once.

Test system: human primary preadipocytes
Assay: Suppression of adipogenesis in cultures of human primary preadipocytes (EC50)
Format: cell-based

Compound | EC50
COc1ccc2cc3[n+](cc2c1OC)CCc1cc2c(cc1-3)OCO2 [Phytonutrient C1, Berberine] | 10 µM and 3.5 µg/mL
O=c1cc(-c2ccc(O)c(O)c2)oc2cc(O)cc(O)c12 [Phytonutrient C2, Luteolin] | 20 µM and 5.7 µg/mL
Oc1ccc(/C=C/c2cc(O)cc(O)c2)cc1 [Phytonutrient C3, Resveratrol] | 40 µM and 9.1 µg/mL
O=c1c(O)c(-c2ccc(O)c(O)c2)oc2cc(O)ccc12 [Phytonutrient C4, Fisetin] | 50 µM and 14.3 µg/mL
O=c1c(O)c(-c2ccc(O)c(O)c2)oc2cc(O)cc(O)c12 [Phytonutrient C5, Quercetin] | 25 µM and 7.6 µg/mL
O=C(OC1Cc2c(O)cc(O)cc2OC1c1cc(O)c(O)c(O)c1)c1cc(O)c(O)c(O)c1 (stereo not shown) [Phytonutrient C7, Epigallocatechin Gallate (EGCG)] | 20 µM and 9.2 µg/mL
COc1cc(/C=C/C(=O)/C=C(O)/C=C/c2ccc(O)c(OC)c2)ccc1O [Phytonutrient C9, Curcumin] | 20 µM and 7.5 µg/mL
